The source of these data is patent US8507674B2, “Quorum sensing inhibitor” (The University of Tokyo, priority 2007, dated 2013).

By inhibition is commonly meant the percentage by which the read-out fell short of the control.

Experiment [1] has as its system Burkholderia glumae. As to the kind of experiment: Test Example 9: amount of toxoflavin produced in culture solution, with comparative compound. Format: cell-based. Particulars: 0, 20, 40, 60, 80 or 100 μM, shake culturing 20 hours, FIG. 6. How it is done:
Burkholderia glumae was inoculated into an LB culture medium (produced by BD (Difco LB Broth: containing tryptone (10.0 g), yeast extract (5.0 g), and sodium chloride (10.0 g)), and cultured at 37° C. overnight. The thus-obtained culture solution was subjected to bacterial collection using a centrifuge, and washed with an LB culture medium twice using a fresh LB culture medium each time. To the bacterial cell a fresh LB culture medium was added, and then Compound (1) produced in Production Example 1 was added thereto in such a manner that its final concentration became a predetermined value (i.e., 0, 20, 40, 60, 80 or 100 μM), followed by shake culturing for 20 hours. The amount of toxoflavin produced by the bacterial cell in the culture solution was obtained by the following procedure.
Each culture solution was filtered by a 0.22-μm membrane filter, and 1 mL of the filtrate was isolated. One mL of chloroform was added to the filtrate, followed by extraction. The thus-obtained chloroform layer was concentrated under reduced pressure, and an 80% (V/V) an aqueous methanol solution was added to and dissolved in the residue. The absorbance (at 260 nm) of the solution was measured, and the toxin doses were calculated from the calibration curve, which was obtained using chemically synthesized standard toxin. […]

Experiment [2] deals with Burkholderia glumae. The experiment can be described thus: Test Example 2: number of microorganisms in culture solution (colony count). Particulars: final concentration 100 μM, after 36 hours of cultivation, FIG. 1. Format: cell-based. As to the method: Burkholderia glumae was inoculated into an LB culture medium, and cultured at 37° C. overnight. The thus-obtained culture solution was subjected to bacterial collection using a centrifuge, washed with an LB culture medium twice using a fresh LB culture medium each time. To the bacterial cell a fresh LB culture medium was added to prepare a culture suspension of about 3.0×10^5 cfu/mL. Thereafter, each of Compound (1), Compound (2), Compound (3), Compound (4), Compound (5), Compound (8) and Compound (9) produced in Production Examples 1-5 were added to the culture suspension in such a manner that their final concentration became 100 μM, followed by shake culturing for 36 hours. The number of microorganisms in the culture solution 24 hours and 36 hours after the initiation of the culturing were obtained by the following procedure. Specifically, a portion of the culture solution was removed and diluted 1,000-fold, and then seeded to an LB culture medium agar plate. The number of colonies were counted to obtain the number of microorganisms.
The same experiments were conducted, as comparative tests, using Comparative Compounds (1)-(3), which were produced in Reference Examples 1-3 and the below-explained compound (Comparative Compound (4)), which is disclosed in Patent Document 1, thereby obtaining the number of microorganisms.

Experiment [3] relates to (gfp expression PAO1-strain). The experiment can be described thus: Test Example 7: biofilm formation inhibition in flow cell system. In kind it is cell-based, Burkholderia aeruginosa. Particulars: test liquid at 200 μL per minute, observed up to 84 hours by confocal microscope, FIG. 5. How it is done: Using the flow cell system shown in FIG. 4, the […] aeruginosa biofilm formation inhibition effect of Compound (2), which was produced using Production Example 2, was evaluated.
A culture medium bottle (1), peristaltic pump (2), glass cell (4) and waste fluid bottle (5) are connected via a silicon tube (6) so that a culture medium (9) is supplied to the glass cell (4) from the culture medium bottle (1) using the peristaltic pump (2). The system includes an air removal section (3) between the peristaltic pump (2) and a turncock (7a) for removing entrained air. All components in the flow cell system were sterilized using gamma rays or an autoclave.
As described later, the inhibitory effect against biofilm formation of each of the compounds can be examined in the following manner. Bacteria are cultured in a glass cell (4) to grow a biofilm on the inner wall of the cell, and a test liquid containing one of the compounds is applied to the biofilm. Then the state of the biofilm is observed to evaluate the inhibitory effect against biofilm formation of the compound using a spectral confocal and multiphoton microscope (Leica TCS SP2: produced by Leica). […]

Experiment [4] concerns Porphyromonas gingivalis 381-strain. As to the kind of experiment: Test Example 8: biofilm formation inhibition on hydroxyapatite disks in flow cell system. Format: cell-based. As to the method: Using the flow cell system shown in FIG. 4, the Porphyromonas gingivalis biofilm formation inhibition effect of Compound (2), which was produced in Production Example 2, was evaluated.
Bacteria: Periodontitis pathogenic bacteria Porphyromonas gingivalis 381-strain (clinical strain) were used.
Culture Medium: A GAM culture medium containing […] and 1 μg/L menadione was used.
Bacterial Suspension The 381-strain was inoculated into the GAM culture medium, and cultivated until the stationary phase (OD550=1.8). Then the culture medium was diluted 20-fold by the GAM culture medium described above.
Test liquid: The test liquid was prepared by dissolving Compound (2) into DMSO to obtain 100 μM of DMSO solution of Compound (2). […]
After the cultivation, the HA disks were dipped in 300 μL of sterile distilled water, and treated by supersonic waves for 30 minutes at 4° C. […] Then, the turbidity of 10 μL of the suspension liquid was measured with an absorptiometer (C07500 calorimeter, produced by Funakoshi) (measurement wavelength=550 nm).
A mean OD was found based on the resulting OD values, excluding the minimum and maximum values. Likewise, the turbidity of the control test liquid was obtained and determined as a control OD value, and then the control mean OD value was found in the same manner. […]

`CCCCCCCCCC(=O)CC(=O)Nc1ccccc1O` [Comparative Compound (5), reference compound]: the “toxin doses produced by bacteria (toxoflavin)” value in experiment [1] is “almost no change”.

As for `CCCCc1cc(=O)n2cccc(O)c2n1` [Compound (9), 9-hydroxy-2-n-butyl-4H-pyrid[1,2-a]pyrimidin-4-one], the “control activity against Burkholderia glumae (number of microorganisms)” value in experiment [2] is listed as “can kill almost all Burkholderia glumae”. Turning to `CCCCCc1cc(=O)n2cccc(O)c2n1` [Compound (2), 9-hydroxy-2-n-pentyl-4H-pyrid[1,2-a]pyrimidin-4-one], the “biofilm formation on inner wall of glass cell” value in experiment [3] is reported as “biofilm formation was not observed”. For the same molecule, the “Mean OD Value” in experiment [4] (100 μM, 14 days circulation, turbidity of biofilm suspension at 550 nm) is 0.041. Moreover, the inhibition at 100 µM in experiment [4] (Porphyromonas gingivalis, 381STRAIN, 336 h, read-out: Inhibition Rate (%) (biofilm formation inhibition rate)) amounted to 56.4%.

As for `CCc1cc(=O)n2cccc(O)c2n1` [Compound (8), 9-hydroxy-2-ethyl-4H-pyrid[1,2-a]pyrimidin-4-one], the “control activity against Burkholderia glumae (number of microorganisms)” value in experiment [2] was “can kill almost all Burkholderia glumae”.
